Measurements: patent publication US20220348592A1, “FUSED HETEROCYCLIC DERIVATIVES” (Janssen Sciences Ireland Unlimited Company, priority 2019, published 2022)

Key:
HBV = test: Anti-HBV activity: intracellular HBV DNA by real-time PCR in HepG2.117 cell line; format: cell-based, Hepatitis B virus; settings: Hepatitis B virus, 72 h; HepG2.117 cells, 3 days of treatment, intracellular HBV DNA by real-time PCR, mean value; read-out: HBV-AVE-HepG2.117 EC50 (μM, mean value)
How it was run: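 HepG2.117 cells, a Tet-off inducible HBV-producing line, induced to replicate HBV and then treated with serially diluted compound. After 3 days, intracellular HBV DNA quantified by real-time PCR with HBV-specific primers and probe.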

[1] = Cytotoxicity in HepG2.117 cells, ATPlite Luminescence Assay; format: cell-based, human; settings: human, incubated for 3 days, mean value, read-out: TOX-HepG2.117 CC50 (μM, mean value)
Procedure: Cytotoxicity of the compounds was tested using HepG2 or HepG2.117 cells, incubated for 3 days in the presence of compounds. The viability of the cells was assessed using the PERKIN ELMER ATPlite Luminescence Assay System.”

Row | SMILES | EC50 (HBV) | CC50 at 3 days [1]
1 | Cc1cc(F)ncc1CN1CCn2nc3c(c2C1=O)CN(C(=O)c1ccc(Cl)c(Cl)c1)[C@H](C)C3 [Example C177] | 0.136 µM | > 50 µM
2 | C[C@@H]1Cc2nn3c(c2CN1C(=O)c1ccc(Cl)c(Cl)c1)C(=O)N(Cc1cc(C#N)c(F)cc1F)CC3 [Example C178] | 0.207 µM | > 50 µM
3 | CC(C)c1nnc(CN2CCn3nc4c(c3C2=O)CN(C(=O)c2ccc(Cl)c(Cl)c2)[C@H](C)C4)o1 [Example C179] | 0.219 µM | > 50 µM
4 | C[C@@H]1Cc2nn3c(c2CN1C(=O)c1ccc(Cl)c(Cl)c1)C(=O)N(Cc1cc(C#N)ccc1F)CC3 [Example C180] | 0.123 µM | > 50 µM
5 | C[C@@H]1Cc2nn3c(c2CN1C(=O)c1ccc(Cl)c(Cl)c1)C(=O)N(Cc1cc(F)ccc1C(F)(F)F)CC3 [Example C181] | 0.152 µM | > 50 µM
6 | C[C@@H]1Cc2nn3c(c2CN1C(=O)c1ccc(Cl)c(Cl)c1)C(=O)N(Cc1cc(C(F)F)on1)CC3 [Example C182] | 0.075 µM | > 50 µM
7 | CC(C)c1noc(C(C)N2CCn3nc4c(c3C2=O)CN(C(=O)c2ccc(Cl)c(Cl)c2)[C@H](C)C4)n1 (stereo partly drawn) [Example C183] | 0.108 µM | > 50 µM
8 | CC(c1nnnn1C1CC1)N1CCn2nc3c(c2C1=O)CN(C(=O)c1ccc(Cl)c(Cl)c1)[C@H](C)C3 (stereo partly drawn) [Example C184] | > 2.5 µM | > 50 µM
9 | CC(c1cccnc1)N1CCn2nc3c(c2C1=O)CN(C(=O)c1ccc(Cl)c(Cl)c1)[C@H](C)C3 (stereo partly drawn) [Example C185] | 0.114 µM | > 50 µM
10 | CC(c1ccc(F)c(F)c1)N1CCn2nc3c(c2C1=O)CN(C(=O)c1ccc(Cl)c(Cl)c1)[C@H](C)C3 (stereo partly drawn) [Example C186] | 0.049 µM | 21.6 µM
11 | CC(C)Cc1nnc(C(C)N2CCn3nc4c(c3C2=O)CN(C(=O)c2ccc(Cl)c(Cl)c2)[C@H](C)C4)o1 (stereo partly drawn) [Example C187] | 0.155 µM | > 50 µM
12 | CC(c1cccc(F)c1)N1CCn2nc3c(c2C1=O)CN(C(=O)c1ccc(Cl)c(Cl)c1)[C@H](C)C3 (stereo partly drawn) [Example C188] | 0.04 µM | 49.6 µM
13 | CC(c1cc(F)ccc1F)N1CCn2nc3c(c2C1=O)CN(C(=O)c1ccc(Cl)c(Cl)c1)[C@H](C)C3 (stereo partly drawn) [Example C189] | 0.043 µM | 41.8 µM
14 | CC(c1nc(C2CC2)no1)N1CCn2nc3c(c2C1=O)CN(C(=O)c1ccc(Cl)c(Cl)c1)[C@H](C)C3 (stereo partly drawn) [Example C190] | 0.115 µM | 33.1 µM
15 | CC(c1cccc2cccnc12)N1CCn2nc3c(c2C1=O)CN(C(=O)c1ccc(Cl)c(Cl)c1)[C@H](C)C3 (stereo partly drawn) [Example C191] | 0.097 µM | 33 µM
16 | CC(c1ccc(F)cc1F)N1CCn2nc3c(c2C1=O)CN(C(=O)c1ccc(Cl)c(Cl)c1)[C@H](C)C3 (stereo partly drawn) [Example C192] | 0.076 µM | 39.7 µM
17 | Cc1nccnc1C(C)N1CCn2nc3c(c2C1=O)CN(C(=O)c1ccc(Cl)c(Cl)c1)[C@H](C)C3 (stereo partly drawn) [Example C193] | 0.197 µM | > 50 µM
18 | CC(c1cccc(OC(F)(F)F)c1)N1CCn2nc3c(c2C1=O)CN(C(=O)c1ccc(Cl)c(Cl)c1)[C@H](C)C3 (stereo partly drawn) [Example C194] | 0.075 µM | 26.4 µM
19 | C[C@@H]1Cc2nn3c(c2CN1C(=O)c1ccc(Cl)c(Cl)c1)C(=O)N(Cc1ccc(C#N)cn1)CC3 [Example C195] | 0.566 µM | > 50 µM
20 | C[C@@H]1Cc2nn3c(c2CN1C(=O)c1ccc(Cl)c(Cl)c1)C(=O)N(Cc1cc(F)cc(F)c1)CC3 [Example C196] | 0.048 µM | 38 µM
21 | C[C@@H]1Cc2nn3c(c2CN1C(=O)c1ccc(Cl)c(Cl)c1)C(=O)N(Cc1c(F)cncc1F)CC3 [Example C197] | 0.24 µM | > 50 µM
22 | COc1ncc(CN2CCn3nc4c(c3C2=O)CN(C(=O)c2ccc(Cl)c(Cl)c2)[C@H](C)C4)cn1 [Example C198] | 0.053 µM | > 50 µM
23 | C[C@@H]1Cc2nn3c(c2CN1C(=O)c1ccc(Cl)c(Cl)c1)C(=O)N(Cc1nc(Cl)ccc1F)CC3 [Example C199] | 0.33 µM | > 50 µM
24 | C[C@@H]1Cc2nn3c(c2CN1C(=O)c1ccc(Cl)c(Cl)c1)C(=O)N(Cc1nnn(C)n1)CC3 [Example C200] | 0.25 µM | > 50 µM
25 | C[C@@H]1Cc2nn3c(c2CN1C(=O)c1ccc(Cl)c(Cl)c1)C(=O)N(Cc1nnc(C2CC2)o1)CC3 [Example C201] | 0.229 µM | > 50 µM
26 | C[C@@H]1Cc2nn3c(c2CN1C(=O)c1ccc(Cl)c(Cl)c1)C(=O)N(Cc1cn(C)cn1)CC3 [Example C202] | 0.071 µM | > 50 µM
27 | C[C@@H]1Cc2nn3c(c2CN1C(=O)c1ccc(Cl)c(Cl)c1)C(=O)N(Cc1ccc(C#N)cc1OC(F)F)CC3 [Example C203] | 0.09 µM | > 50 µM

Row | SMILES | EC50 (HBV) | CC50 at 3 days [1]
28 | Cc1cc(CN2CCn3nc4c(c3C2=O)CN(C(=O)c2ccc(Cl)c(Cl)c2)[C@H](C)C4)ccc1C#N [Example C204] | 0.028 µM | 19.2 µM
29 | Cc1cc(C#N)ccc1CN1CCn2nc3c(c2C1=O)CN(C(=O)c1ccc(Cl)c(Cl)c1)[C@H](C)C3 [Example C207] | 0.053 µM | 25.6 µM
30 | C[C@@H]1Cc2nn3c(c2CN1C(=O)c1ccc(Cl)c(Cl)c1)C(=O)N(Cc1ccc(F)cn1)CC3 [Example C208] | 0.13 µM | > 50 µM
31 | Cc1ncc(CN2CCn3nc4c(c3C2=O)CN(C(=O)c2ccc(Cl)c(Cl)c2)[C@H](C)C4)o1 [Example C209] | > 2.5 µM | > 50 µM
32 | C[C@@H]1Cc2nn3c(c2CN1C(=O)c1ccc(Cl)c(Cl)c1)C(=O)N(Cc1ccnc(F)c1)CC3 [Example C210] | 0.062 µM | > 50 µM
33 | C[C@@H]1Cc2nn3c(c2CN1C(=O)c1ccc(Cl)c(Cl)c1)C(=O)N(Cc1ccnc(C#N)c1)CC3 [Example C211] | 0.285 µM | > 50 µM
34 | C[C@@H]1Cc2nn3c(c2CN1C(=O)c1ccc(Cl)c(Cl)c1)C(=O)N(Cc1cc(F)ccc1OC(F)F)CC3 [Example C212] | 0.05 µM | > 50 µM
35 | C[C@@H]1Cc2nn3c(c2CN1C(=O)c1ccc(Cl)c(Cl)c1)C(=O)N(Cc1cccc(C(F)(F)F)n1)CC3 [Example C213] | 0.382 µM | 37.5 µM
36 | Cc1ncoc1CN1CCn2nc3c(c2C1=O)CN(C(=O)c1ccc(Cl)c(Cl)c1)[C@H](C)C3 [Example C214] | 0.074 µM | > 50 µM
37 | COc1ccc(C#N)cc1CN1CCn2nc3c(c2C1=O)CN(C(=O)c1ccc(Cl)c(Cl)c1)[C@H](C)C3 [Example C215] | 0.106 µM | > 50 µM
38 | C[C@@H]1Cc2nn3c(c2CN1C(=O)c1ccc(Cl)c(Cl)c1)C(=O)N(Cc1ccc(F)c(C#N)c1)CC3 [Example C216] | 0.09 µM | > 50 µM
39 | CC(c1nc(C(C)(C)C)no1)N1CCn2nc3c(c2C1=O)CN(C(=O)c1ccc(Cl)c(Cl)c1)[C@H](C)C3 (stereo partly drawn) [Example C217] | 0.183 µM | 39.5 µM
40 | CC(c1nccs1)N1CCn2nc3c(c2C1=O)CN(C(=O)c1ccc(Cl)c(Cl)c1)[C@H](C)C3 (stereo partly drawn) [Example C218] | 0.039 µM | > 50 µM
41 | Cc1cnc(C(C)N2CCn3nc4c(c3C2=O)CN(C(=O)c2ccc(Cl)c(Cl)c2)[C@H](C)C4)cn1 (stereo partly drawn) [Example C219] | 0.068 µM | > 50 µM
42 | CCc1nnc(C(C)N2CCn3nc4c(c3C2=O)CN(C(=O)c2ccc(Cl)c(Cl)c2)[C@H](C)C4)o1 (stereo partly drawn) [Example C220] | 0.077 µM | > 50 µM
43 | Cc1cnc(C(C)N2CCn3nc4c(c3C2=O)CN(C(=O)c2ccc(Cl)c(Cl)c2)[C@H](C)C4)o1 (stereo partly drawn) [Example C221] | 0.022 µM | > 50 µM
44 | CCc1noc(C(C)N2CCn3nc4c(c3C2=O)CN(C(=O)c2ccc(Cl)c(Cl)c2)[C@H](C)C4)n1 (stereo partly drawn) [Example C222] | 0.124 µM | > 50 µM
45 | Cc1noc(C(C)N2CCn3nc4c(c3C2=O)CN(C(=O)c2ccc(Cl)c(Cl)c2)[C@H](C)C4)n1 (stereo partly drawn) [Example C223] | 0.219 µM | > 50 µM
46 | Cc1nnc(C(C)N2CCn3nc4c(c3C2=O)CN(C(=O)c2ccc(Cl)c(Cl)c2)[C@H](C)C4)o1 (stereo partly drawn) [Example C224] | 0.326 µM | > 50 µM
47 | Cc1nc(C(C)N2CCn3nc4c(c3C2=O)CN(C(=O)c2ccc(Cl)c(Cl)c2)[C@H](C)C4)no1 (stereo partly drawn) [Example C225] | 0.263 µM | > 50 µM
48 | COc1ccccc1C(C)N1CCn2nc3c(c2C1=O)CN(C(=O)c1ccc(Cl)c(Cl)c1)[C@H](C)C3 (stereo partly drawn) [Example C227] | 0.129 µM | 37.3 µM
49 | C[C@@H]1Cc2nn3c(c2CN1C(=O)c1ccc(Cl)c(Cl)c1)C(=O)N(Cc1cc(F)ccc1F)CC3 [Example C228] | 0.062 µM | 37.5 µM
50 | Cc1ocnc1CN1CCn2nc3c(c2C1=O)CN(C(=O)c1ccc(Cl)c(Cl)c1)[C@H](C)C3 [Example C229] | 0.438 µM | > 25 µM
51 | C[C@@H]1Cc2nn3c(c2CN1C(=O)c1ccc(Cl)c(Cl)c1)C(=O)N(Cc1cc(F)cc(C#N)c1)CC3 [Example C230] | 0.045 µM | > 12.5 µM
52 | C[C@@H]1Cc2nn3c(c2CN1C(=O)c1ccc(Cl)c(Cl)c1)C(=O)N(Cc1cccc(C#N)c1F)CC3 [Example C231] | 0.09 µM | > 50 µM
53 | Cc1ccc(CN2CCn3nc4c(c3C2=O)CN(C(=O)c2ccc(Cl)c(Cl)c2)[C@H](C)C4)c(C)n1 [Example C232] | 0.066 µM | 24.4 µM
54 | C[C@@H]1Cc2nn3c(c2CN1C(=O)c1ccc(Cl)c(Cl)c1)C(=O)N(Cc1cccnc1C(F)(F)F)CC3 [Example C233] | 0.423 µM | 29.8 µM
